Reference: ChEMBL document CHEMBL1151757, “Synthesis, radiosynthesis, and biological evaluation of fluorine-18-labeled 2beta-carbo(fluoroalkoxy)-3beta-(3'-((Z)-2-haloethenyl)phenyl)nortropanes: candidate radioligands for in vivo imaging of the serotonin transporter with positron emission tomography” (J Med Chem, 2008)

tested on: not listed separately; experiment: Ratio of drug uptake in pons to cerebellum in anesthetized cynomolgus monkey after 85 mins postinjection; type: ADME, organism-based, Macaca fascicularis; details: in vivo

| Structure (SMILES) | Ratio |
| --- | --- |
| O=C(OCC[18F])C1C2CCC(CC1c1cccc(/C=C\I)c1)N2 (stereo not drawn) | 1.1 |

tested on: Midbrain; experiment: Drug uptake in anesthetized cynomolgus monkey brain midbrain after 1.5 mins postinjection; type: ADME, organism-based, Macaca fascicularis; parameters: unit not given here; details: in vivo, 0.025 h

| Structure (SMILES) | Drug uptake |
| --- | --- |
| O=C(OCC[18F])C1C2CCC(CC1c1cccc(/C=C\I)c1)N2 (stereo not drawn) | 0.11 |

tested on: not listed separately; experiment: Drug uptake in anesthetized cynomolgus monkey brain cerebellum after 225 mins postinjection; type: ADME, organism-based, Macaca fascicularis; details: in vivo, 3.75 h

| Structure (SMILES) | Drug uptake |
| --- | --- |
| O=C(OCC[18F])C1C2CCC(CC1c1cccc(/C=C\I)c1)N2 (stereo not drawn) | 1.26 |

tested on: not listed separately; experiment: Ratio of drug uptake in thalamus to cerebellum in anesthetized cynomolgus monkey after 95 mins postinjection; type: ADME, organism-based, Macaca fascicularis; details: in vivo

| Structure (SMILES) | Ratio |
| --- | --- |
| O=C(OCC[18F])C1C2CCC(CC1c1cccc(/C=C\I)c1)N2 (stereo not drawn) | 1.5 |

tested on: Thalamus; experiment: Drug uptake in anesthetized cynomolgus monkey brain thalamus after 0.5 mins postinjection; type: ADME, organism-based, Macaca fascicularis; details: in vivo

| Structure (SMILES) | Drug uptake |
| --- | --- |
| O=C(OCC[18F])C1C2CCC(CC1c1cccc(/C=C\I)c1)N2 (stereo not drawn) | 0 |

tested on: Putamen; experiment: Drug uptake in anesthetized cynomolgus monkey brain putamen after 35 mins postinjection; type: ADME, organism-based, Macaca fascicularis; parameters: unit not given here; details: in vivo

| Structure (SMILES) | Drug uptake |
| --- | --- |
| O=C(OCC[18F])C1C2CCC(CC1c1cccc(/C=C\I)c1)N2 (stereo not drawn) | 4.28 |

tested on: Putamen; experiment: Drug uptake in anesthetized cynomolgus monkey brain putamen after 105 mins postinjection; type: ADME, organism-based, Macaca fascicularis; parameters: unit not given here; details: in vivo, 1.75 h

| Structure (SMILES) | Drug uptake |
| --- | --- |
| O=C(OCC[18F])C1C2CCC(CC1c1cccc(/C=C\I)c1)N2 (stereo not drawn) | 3.88 |

tested on: Thalamus; experiment: Drug uptake in anesthetized cynomolgus monkey brain thalamus after 135 mins postinjection; type: ADME, organism-based, Macaca fascicularis; parameters: unit not given here; details: in vivo, 2.25 h

| Structure (SMILES) | Drug uptake |
| --- | --- |
| O=C(OCC[18F])C1C2CCC(CC1c1cccc(/C=C\I)c1)N2 (stereo not drawn) | 3.33 |

tested on: Caudate; experiment: Drug uptake in anesthetized cynomolgus monkey brain caudate after 0.5 mins postinjection; type: ADME, organism-based, Macaca fascicularis, Caudate nucleus; details: in vivo

| Structure (SMILES) | Drug uptake |
| --- | --- |
| O=C(OCC[18F])C1C2CCC(CC1c1cccc(/C=C\I)c1)N2 (stereo not drawn) | 0 |

tested on: not listed separately; experiment: Drug uptake in anesthetized cynomolgus monkey brain cerebellum after 22.5 mins postinjection; type: ADME, organism-based, Macaca fascicularis; details: in vivo, 0.375 h

| Structure (SMILES) | Drug uptake |
| --- | --- |
| O=C(OCC[18F])C1C2CCC(CC1c1cccc(/C=C\I)c1)N2 (stereo not drawn) | 4.02 |

tested on: Caudate; experiment: Drug uptake in anesthetized cynomolgus monkey brain caudate after 165 mins postinjection; type: ADME, organism-based, Macaca fascicularis, Caudate nucleus; details: in vivo, 2.75 h

| Structure (SMILES) | Drug uptake |
| --- | --- |
| O=C(OCC[18F])C1C2CCC(CC1c1cccc(/C=C\I)c1)N2 (stereo not drawn) | 2.56 |

tested on: not listed separately; experiment: Ratio of drug uptake in caudate to cerebellum in anesthetized cynomolgus monkey after 65 mins postinjection; type: ADME, organism-based, Macaca fascicularis; details: in vivo

| Structure (SMILES) | Ratio |
| --- | --- |
| O=C(OCC[18F])C1C2CCC(CC1c1cccc(/C=C\I)c1)N2 (stereo not drawn) | 1.1 |

tested on: Caudate; experiment: Drug uptake in anesthetized cynomolgus monkey brain caudate after 15.5 mins postinjection; type: ADME, organism-based, Macaca fascicularis, Caudate nucleus; details: in vivo

| Structure (SMILES) | Drug uptake |
| --- | --- |
| O=C(OCC[18F])C1C2CCC(CC1c1cccc(/C=C\I)c1)N2 (stereo not drawn) | 2.94 |

tested on: Thalamus; experiment: Drug uptake in anesthetized cynomolgus monkey brain thalamus after 235 mins postinjection; type: ADME, organism-based, Macaca fascicularis; parameters: unit not given here; details: in vivo

| Structure (SMILES) | Drug uptake |
| --- | --- |
| O=C(OCC[18F])C1C2CCC(CC1c1cccc(/C=C\I)c1)N2 (stereo not drawn) | 2.2 |

tested on: not listed separately; experiment: Drug uptake in anesthetized cynomolgus monkey brain frontal lobe after 95 mins postinjection; type: ADME, organism-based, Macaca fascicularis; details: in vivo

| Structure (SMILES) | Drug uptake |
| --- | --- |
| O=C(OCC[18F])C1C2CCC(CC1c1cccc(/C=C\I)c1)N2 (stereo not drawn) | 2.53 |

tested on: Midbrain; experiment: Drug uptake in anesthetized cynomolgus monkey brain midbrain after 155 mins postinjection; type: ADME, organism-based, Macaca fascicularis; details: in vivo

| Structure (SMILES) | Drug uptake |
| --- | --- |
| O=C(OCC[18F])C1C2CCC(CC1c1cccc(/C=C\I)c1)N2 (stereo not drawn) | 3.66 |

tested on: not listed separately; experiment: Drug uptake in anesthetized cynomolgus monkey brain frontal lobe after 27.5 mins postinjection; type: ADME, organism-based, Macaca fascicularis; details: in vivo

| Structure (SMILES) | Drug uptake |
| --- | --- |
| O=C(OCC[18F])C1C2CCC(CC1c1cccc(/C=C\I)c1)N2 (stereo not drawn) | 2.82 |

tested on: Pons; experiment: Drug uptake in anesthetized cynomolgus monkey brain pons after 27.5 mins postinjection; type: ADME, organism-based, Macaca fascicularis; details: in vivo

| Structure (SMILES) | Drug uptake |
| --- | --- |
| O=C(OCC[18F])C1C2CCC(CC1c1cccc(/C=C\I)c1)N2 (stereo not drawn) | 3.21 |

tested on: not listed separately; experiment: Ratio of drug uptake in pons to cerebellum in anesthetized cynomolgus monkey after 145 mins postinjection; type: ADME, organism-based, Macaca fascicularis; details: in vivo

| Structure (SMILES) | Ratio |
| --- | --- |
| O=C(OCC[18F])C1C2CCC(CC1c1cccc(/C=C\I)c1)N2 (stereo not drawn) | 1.4 |

tested on: Medulla; experiment: Drug uptake in anesthetized cynomolgus monkey brain medulla after 35 mins postinjection; type: ADME, organism-based, Macaca fascicularis; details: in vivo

| Structure (SMILES) | Drug uptake |
| --- | --- |
| O=C(OCC[18F])C1C2CCC(CC1c1cccc(/C=C\I)c1)N2 (stereo not drawn) | 4.05 |

tested on: Thalamus; experiment: Drug uptake in anesthetized cynomolgus monkey brain thalamus after 12.5 mins postinjection; type: ADME, organism-based, Macaca fascicularis; parameters: unit not given here; details: in vivo

| Structure (SMILES) | Drug uptake |
| --- | --- |
| O=C(OCC[18F])C1C2CCC(CC1c1cccc(/C=C\I)c1)N2 (stereo not drawn) | 3.32 |

tested on: Putamen; experiment: Drug uptake in anesthetized cynomolgus monkey brain putamen after 6.5 mins postinjection; type: ADME, organism-based, Macaca fascicularis; parameters: unit not given here; details: in vivo

| Structure (SMILES) | Drug uptake |
| --- | --- |
| O=C(OCC[18F])C1C2CCC(CC1c1cccc(/C=C\I)c1)N2 (stereo not drawn) | 2.54 |

tested on: Midbrain; experiment: Drug uptake in anesthetized cynomolgus monkey brain midbrain after 125 mins postinjection; type: ADME, organism-based, Macaca fascicularis; parameters: unit not given here; details: in vivo

| Structure (SMILES) | Drug uptake |
| --- | --- |
| O=C(OCC[18F])C1C2CCC(CC1c1cccc(/C=C\I)c1)N2 (stereo not drawn) | 4.08 |

tested on: Medulla; experiment: Drug uptake in anesthetized cynomolgus monkey brain medulla after 75 mins postinjection; type: ADME, organism-based, Macaca fascicularis; details: in vivo, 1.25 h

| Structure (SMILES) | Drug uptake |
| --- | --- |
| O=C(OCC[18F])C1C2CCC(CC1c1cccc(/C=C\I)c1)N2 (stereo not drawn) | 3.78 |

tested on: not listed separately; experiment: Ratio of drug uptake in pons to cerebellum in anesthetized cynomolgus monkey after 95 mins postinjection; type: ADME, organism-based, Macaca fascicularis; details: in vivo

| Structure (SMILES) | Ratio |
| --- | --- |
| O=C(OCC[18F])C1C2CCC(CC1c1cccc(/C=C\I)c1)N2 (stereo not drawn) | 1.2 |

tested on: not listed separately; experiment: Ratio of drug uptake in putamen to cerebellum in anesthetized cynomolgus monkey after 35 mins postinjection; type: ADME, organism-based, Macaca fascicularis; details: in vivo

| Structure (SMILES) | Ratio |
| --- | --- |
| O=C(OCC[18F])C1C2CCC(CC1c1cccc(/C=C\I)c1)N2 (stereo not drawn) | 1.1 |

tested on: Midbrain; experiment: Drug uptake in anesthetized cynomolgus monkey brain midbrain after 9.5 mins postinjection; type: ADME, organism-based, Macaca fascicularis; parameters: unit not given here; details: in vivo

| Structure (SMILES) | Drug uptake |
| --- | --- |
| O=C(OCC[18F])C1C2CCC(CC1c1cccc(/C=C\I)c1)N2 (stereo not drawn) | 3.52 |

tested on: not listed separately; experiment: Ratio of drug uptake in occipital lobe to cerebellum in anesthetized cynomolgus monkey after 18.5 mins postinjection; type: ADME, organism-based, Macaca fascicularis; details: in vivo

| Structure (SMILES) | Ratio |
| --- | --- |
| O=C(OCC[18F])C1C2CCC(CC1c1cccc(/C=C\I)c1)N2 (stereo not drawn) | 0.7 |

tested on: Medulla; experiment: Drug uptake in anesthetized cynomolgus monkey brain medulla after 215 mins postinjection; type: ADME, organism-based, Macaca fascicularis; details: in vivo

| Structure (SMILES) | Drug uptake |
| --- | --- |
| O=C(OCC[18F])C1C2CCC(CC1c1cccc(/C=C\I)c1)N2 (stereo not drawn) | 2.43 |

tested on: not listed separately; experiment: Ratio of drug uptake in midbrain to cerebellum in anesthetized cynomolgus monkey after 18.5 mins postinjection; type: ADME, organism-based, Macaca fascicularis; details: in vivo

| Structure (SMILES) | Ratio |
| --- | --- |
| O=C(OCC[18F])C1C2CCC(CC1c1cccc(/C=C\I)c1)N2 (stereo not drawn) | 1.1 |

tested on: Thalamus; experiment: Drug uptake in anesthetized cynomolgus monkey brain thalamus after 215 mins postinjection; type: ADME, organism-based, Macaca fascicularis; parameters: unit not given here; details: in vivo

| Structure (SMILES) | Drug uptake |
| --- | --- |
| O=C(OCC[18F])C1C2CCC(CC1c1cccc(/C=C\I)c1)N2 (stereo not drawn) | 2.38 |

tested on: not listed separately; experiment: Ratio of drug uptake in frontal lobe to cerebellum in anesthetized cynomolgus monkey after 75 mins postinjection; type: ADME, organism-based, Macaca fascicularis; details: in vivo, 1.25 h

| Structure (SMILES) | Ratio |
| --- | --- |
| O=C(OCC[18F])C1C2CCC(CC1c1cccc(/C=C\I)c1)N2 (stereo not drawn) | 0.9 |

tested on: Putamen; experiment: Drug uptake in anesthetized cynomolgus monkey brain putamen after 4.5 mins postinjection; type: ADME, organism-based, Macaca fascicularis; parameters: unit not given here; details: in vivo, 0.075 h

| Structure (SMILES) | Drug uptake |
| --- | --- |
| O=C(OCC[18F])C1C2CCC(CC1c1cccc(/C=C\I)c1)N2 (stereo not drawn) | 1.53 |

tested on: Medulla; experiment: Drug uptake in anesthetized cynomolgus monkey brain medulla after 0.5 mins postinjection; type: ADME, organism-based, Macaca fascicularis; details: in vivo

| Structure (SMILES) | Drug uptake |
| --- | --- |
| O=C(OCC[18F])C1C2CCC(CC1c1cccc(/C=C\I)c1)N2 (stereo not drawn) | 0 |

tested on: Medulla; experiment: Drug uptake in anesthetized cynomolgus monkey brain medulla after 55 mins postinjection; type: ADME, organism-based, Macaca fascicularis; details: in vivo

| Structure (SMILES) | Drug uptake |
| --- | --- |
| O=C(OCC[18F])C1C2CCC(CC1c1cccc(/C=C\I)c1)N2 (stereo not drawn) | 3.96 |

tested on: Putamen; experiment: Drug uptake in anesthetized cynomolgus monkey brain putamen after 115 mins postinjection; type: ADME, organism-based, Macaca fascicularis; parameters: unit not given here; details: in vivo

| Structure (SMILES) | Drug uptake |
| --- | --- |
| O=C(OCC[18F])C1C2CCC(CC1c1cccc(/C=C\I)c1)N2 (stereo not drawn) | 3.74 |

tested on: not listed separately; experiment: Drug uptake in anesthetized cynomolgus monkey brain frontal lobe after 235 mins postinjection; type: ADME, organism-based, Macaca fascicularis; details: in vivo

| Structure (SMILES) | Drug uptake |
| --- | --- |
| O=C(OCC[18F])C1C2CCC(CC1c1cccc(/C=C\I)c1)N2 (stereo not drawn) | 1.39 |

tested on: Midbrain; experiment: Drug uptake in anesthetized cynomolgus monkey brain midbrain after 225 mins postinjection; type: ADME, organism-based, Macaca fascicularis; details: in vivo, 3.75 h

| Structure (SMILES) | Drug uptake |
| --- | --- |
| O=C(OCC[18F])C1C2CCC(CC1c1cccc(/C=C\I)c1)N2 (stereo not drawn) | 2.99 |
